Results: ChEMBL document CHEMBL1201862, “PubChem BioAssay data set” (2004)
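48-hour exposure; five concentrations; linearly interpolated endpoints. GI50 marks 50% less growth.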 Active and inactive are the calls of the source. No stated cut-off is given here; in the data, active = GI50 up to about 1.1 µM and inactive = higher.

How the values were obtained:
Experiment in all cases: NCI anticancer screen, dose series, 48 h
BT-549 = system: BT-549
SN12C = system: SN12C
SF-295 = system: SF-295
OVCAR-8 = system: OVCAR-8
UACC-257 = system: UACC-257
PC-3 = system: PC-3
IGROV-1 = system: IGROV-1
UO-31 = system: UO-31
SNB-75 = system: SNB-75
NCI-H23 = system: NCI-H23
HT-29 = system: HT-29
OVCAR-5 = system: OVCAR-5
TK-10 = system: TK-10
SK-OV-3 = system: SK-OV-3
SR = system: SR
CAKI-1 = system: CAKI-1
HL-60 = system: HL-60
MDA-MB-435 = system: MDA-MB-435
MOLT-4 = system: MOLT-4
NCI-H460 = system: NCI-H460
SW-620 = system: SW-620
SK-MEL-2 = system: SK-MEL-2
SK-MEL-28 = system: SK-MEL-28
NCI-H226 = system: NCI-H226
LOX IMVI = system: LOX IMVI
KM12 = system: KM12
U-251 = system: U-251
DU-145 = system: DU-145
HOP-62 = system: HOP-62
HCT-15 = system: HCT-15
RPMI-8226 = system: RPMI-8226
A498 = system: A498
COLO 205 = system: COLO 205
M14 = system: M14
UACC-62 = system: UACC-62
SNB-19 = system: SNB-19
CCRF-CEM = system: CCRF-CEM
OVCAR-4 = system: OVCAR-4
T47D = system: T47D
HOP-92 = system: HOP-92
RXF 393 = system: RXF 393
OVCAR-3 = system: OVCAR-3
HCT-116 = system: HCT-116
Hs-578T = system: Hs-578T
MDA-N = system: MDA-N
K562 = system: K562
SK-MEL-5 = system: SK-MEL-5
MDA-MB-231 = system: MDA-MB-231
Malme-3M = system: Malme-3M
SF-268 = system: SF-268
NCI-H522 = system: NCI-H522
HCC 2998 = system: HCC 2998
ACHN = system: ACHN
A549 = system: A549
EKVX = system: EKVX
786-0 = system: 786-0
NCI/ADR-RES = system: NCI/ADR-RES
MCF7 = system: MCF7
SF-539 = system: SF-539

## CC(C)(C)[Si](C)(C)OCC1CCC(n2cnc3c(N)ncnc32)O1 (stereo not drawn)
BT-549
  GI50: 27 µM (inactive)
SN12C
  GI50: 69.2 µM (inactive)
SF-295
  GI50: 81.8 µM (inactive)
OVCAR-8
  GI50: 45.4 µM (inactive)
UACC-257
  GI50: 33.7 µM (inactive)
PC-3
  GI50: 28.2 µM (inactive)
IGROV-1
  GI50: 53.8 µM (inactive)
UO-31
  GI50: 44.4 µM (inactive)
SNB-75
  GI50: 67.8 µM (inactive)
NCI-H23
  GI50: 30.6 µM (inactive)
HT-29
  GI50: 94.4 µM (inactive)
OVCAR-5
  GI50: > 100 µM (inactive)
TK-10
  GI50: > 100 µM (inactive)
SK-OV-3
  GI50: 65 µM (inactive)
SR
  GI50: > 10 µM (inactive)
CAKI-1
  GI50: > 100 µM (inactive)
HL-60
  GI50: 48.9 µM (inactive)
MDA-MB-435
  GI50: 25.9 µM (inactive)
MOLT-4
  GI50: 14.7 µM (inactive)
NCI-H460
  GI50: 54.7 µM (inactive)
SW-620
  GI50: > 100 µM (inactive)
SK-MEL-2
  GI50: 32.1 µM (inactive)
SK-MEL-28
  GI50: 72.8 µM (inactive)
NCI-H226
  GI50: > 100 µM (inactive)
LOX IMVI
  GI50: > 100 µM (inactive)
KM12
  GI50: 39.1 µM (inactive)
U-251
  GI50: > 100 µM (inactive)
DU-145
  GI50: 73.8 µM (inactive)
HOP-62
  GI50: 95.7 µM (inactive)
HCT-15
  GI50: 72.1 µM
RPMI-8226
  GI50: 42 µM (inactive)
A498
  GI50: > 100 µM (inactive)
COLO 205
  GI50: > 100 µM (inactive)
M14
  GI50: 38.8 µM (inactive)
UACC-62
  GI50: 59.2 µM (inactive)
SNB-19
  GI50: > 100 µM (inactive)
CCRF-CEM
  GI50: 13.9 µM (inactive)
OVCAR-4
  GI50: > 100 µM (inactive)
T47D
  GI50: 27.2 µM (inactive)
HOP-92
  GI50: > 100 µM (inactive)
RXF 393
  GI50: 84.1 µM (inactive)
OVCAR-3
  GI50: 48.9 µM (inactive)
HCT-116
  GI50: 39.2 µM (inactive)
Hs-578T
  GI50: 72.1 µM (inactive)
MDA-N
  GI50: 47.1 µM (inactive)
K562
  GI50: 3.45 µM (inactive)
SK-MEL-5
  GI50: 17.1 µM (inactive)
MDA-MB-231
  GI50: 54.1 µM (inactive)

## COC(=O)C(Cc1nc2ccccc2nc1O)C(=O)C(=O)Nc1cc(C(F)(F)F)ccc1Cl (stereo not drawn)
BT-549
  GI50: 14.9 µM (inactive)
SN12C
  GI50: 20.5 µM (inactive)
SF-295
  GI50: 28.3 µM (inactive)
Malme-3M
  GI50: 14.1 µM (inactive)
SF-268
  GI50: 14.2 µM (inactive)
OVCAR-8
  GI50: 12.1 µM (inactive)
UACC-257
  GI50: 28.3 µM (inactive)
PC-3
  GI50: 17 µM (inactive)
IGROV-1
  GI50: 12.2 µM (inactive)
UO-31
  GI50: 15.5 µM (inactive)
SNB-75
  GI50: 18.6 µM (inactive)
NCI-H23
  GI50: 14.2 µM (inactive)
HT-29
  GI50: 15.3 µM (inactive)
OVCAR-5
  GI50: 19.4 µM (inactive)
NCI-H522
  GI50: 3.87 µM (inactive)
TK-10
  GI50: 21.1 µM (inactive)
SK-OV-3
  GI50: 35.3 µM (inactive)
SR
  GI50: 4.58 µM (inactive)
CAKI-1
  GI50: 15.4 µM (inactive)
HL-60
  GI50: 10.3 µM (inactive)
HCC 2998
  GI50: 13.6 µM (inactive)
MDA-MB-435
  GI50: 19.4 µM (inactive)
MOLT-4
  GI50: 6.17 µM (inactive)
NCI-H460
  GI50: 19 µM (inactive)
ACHN
  GI50: 12.1 µM (inactive)
A549
  GI50: 69.2 µM (inactive)
SW-620
  GI50: 13.8 µM (inactive)
SK-MEL-2
  GI50: 16.1 µM (inactive)
SK-MEL-28
  GI50: 25.4 µM (inactive)
NCI-H226
  GI50: 18 µM (inactive)
EKVX
  GI50: 15 µM (inactive)
LOX IMVI
  GI50: 16.2 µM (inactive)
KM12
  GI50: 14.5 µM (inactive)
U-251
  GI50: 9.91 µM (inactive)
HOP-62
  GI50: 17.4 µM (inactive)
HCT-15
  GI50: 13.8 µM
RPMI-8226
  GI50: 7.01 µM (inactive)
A498
  GI50: 24 µM (inactive)
M14
  GI50: 16.7 µM (inactive)
UACC-62
  GI50: 18.2 µM (inactive)
786-0
  GI50: 12.6 µM (inactive)
CCRF-CEM
  GI50: 1.51 µM (inactive)
OVCAR-4
  GI50: 12.1 µM (inactive)
NCI/ADR-RES
  GI50: 15.6 µM (inactive)
T47D
  GI50: 15.1 µM (inactive)
HOP-92
  GI50: 11.6 µM (inactive)
RXF 393
  GI50: 13.8 µM (inactive)
OVCAR-3
  GI50: 12.8 µM (inactive)
HCT-116
  GI50: 18.2 µM (inactive)
Hs-578T
  GI50: 12.7 µM (inactive)
MDA-N
  GI50: 25.9 µM (inactive)
K562
  GI50: 12 µM (inactive)
SK-MEL-5
  GI50: 20.4 µM (inactive)
MDA-MB-231
  GI50: 22.2 µM (inactive)
MCF7
  GI50: 14.4 µM (inactive)

## COc1ccc2c(c1)CN1C(=N2)CSC1c1ccccc1Cl (stereo not drawn)
BT-549
  GI50: 25.2 µM (inactive)
SN12C
  GI50: 19.1 µM (inactive)
SF-295
  GI50: 24.7 µM (inactive)
Malme-3M
  GI50: 19.1 µM (inactive)
SF-268
  GI50: 24 µM (inactive)
OVCAR-8
  GI50: 16.7 µM (inactive)
UACC-257
  GI50: 13.4 µM (inactive)
PC-3
  GI50: 16.3 µM (inactive)
IGROV-1
  GI50: 14.9 µM (inactive)
UO-31
  GI50: 11.5 µM (inactive)
SNB-75
  GI50: 19 µM (inactive)
NCI-H23
  GI50: 1.66 µM (inactive)
HT-29
  GI50: 17.4 µM (inactive)
OVCAR-5
  GI50: 18.5 µM (inactive)
NCI-H522
  GI50: 12.9 µM (inactive)
TK-10
  GI50: 23.7 µM (inactive)
SK-OV-3
  GI50: 24.3 µM (inactive)
SR
  GI50: 7.76 µM (inactive)
CAKI-1
  GI50: 29.1 µM (inactive)
HL-60
  GI50: 6.55 µM (inactive)
HCC 2998
  GI50: 14.4 µM (inactive)
MDA-MB-435
  GI50: 18.8 µM (inactive)
MOLT-4
  GI50: 0.54 µM (active)
NCI-H460
  GI50: 14.3 µM (inactive)
ACHN
  GI50: 17.6 µM (inactive)
A549
  GI50: 25.7 µM (inactive)
SW-620
  GI50: 17.4 µM (inactive)
SK-MEL-2
  GI50: 17.7 µM (inactive)
SK-MEL-28
  GI50: 11.1 µM (inactive)
NCI-H226
  GI50: 12.6 µM (inactive)
EKVX
  GI50: 16.6 µM (inactive)
LOX IMVI
  GI50: 15 µM (inactive)
KM12
  GI50: 18 µM (inactive)
U-251
  GI50: 21.5 µM (inactive)
HOP-62
  GI50: 31.6 µM (inactive)
HCT-15
  GI50: 11.7 µM
RPMI-8226
  GI50: 12.1 µM (inactive)
COLO 205
  GI50: 12.8 µM (inactive)
M14
  GI50: 18.3 µM (inactive)
UACC-62
  GI50: 17.6 µM (inactive)
786-0
  GI50: 17.9 µM (inactive)
SNB-19
  GI50: 28.6 µM (inactive)
OVCAR-4
  GI50: 20.1 µM (inactive)
NCI/ADR-RES
  GI50: 10.1 µM (inactive)
T47D
  GI50: 27.7 µM (inactive)
HOP-92
  GI50: 11.3 µM (inactive)
RXF 393
  GI50: 14.4 µM (inactive)
SF-539
  GI50: 14.5 µM (inactive)
HCT-116
  GI50: 17.5 µM (inactive)
Hs-578T
  GI50: 27.9 µM (inactive)
MDA-N
  GI50: 17.1 µM (inactive)
K562
  GI50: 5.33 µM (inactive)
SK-MEL-5
  GI50: 14.4 µM (inactive)
MDA-MB-231
  GI50: 21.8 µM (inactive)
MCF7
  GI50: 25.9 µM (inactive)
